Reference: patent publication US20220125760A1, “USE OF USP7 INHIBITORS FOR THE TREATMENT OF ACUTE MYELOID LEUKEMIA (AML)” (INSERM (Institut National de la Santé et de la Recherche …, priority 2019, published 2022)

Legend:
[1] = biological target: T1, CHK1 and USP7 (Homo sapiens, UniProt Q93009); assay: Proximity Ligation Assay (PLA) of CHK1 and USP7 in HL-60 cells; format: cell-based; conditions: HL60 cells, drug treatment, untreated (NT) 1.07+/−0.07
T1 construct: endogenous in cells; host or cells: HL-60 cells
Method: (§1) B: HL-60 cells were treated as indicated for 24 h. […] Statistical analysis was performed by unpaired t-test (n=4). *P≤0.05 and **P≤0.01. […] Colony formation was assessed after 7 days and represented as the ratio of the number of clones between untreated and treated conditions. For statistical analyses, unpaired Wilcoxon test was used. *P≤0.05, and ns=not significant.

[2] = test system: primary AML cells; assay: Colony formation of primary AML blast cells in methylcellulose-based semi-solid medium; format: cell-based, Human; conditions: for colony formation, effect on cytarabine sensitivity: 10 nM cytarabine + 5 μM P22077, 7 days
Method: as §1
(§2) To explore the possibility that USP7 by modulating CHK1 stability USP7 participates in the chemoresistance of leukemic cells, we examined the capacity of USP7 inhibition to sensitize HL60 and OCI-AML3 cells to cytarabine treatment. […] We then quantified the capacity of primary AML cells to form colonies in methylcellulose-based semi-solid medium, when exposed to clinical relevant concentrations (10 nM) of cytarabine combined with the P22077 inhibitor (FIG. 5D-5E).

[3] = test system: CHK1 protein levels in HL-60 cells; assay: CHK1 protein level by western blot in HL-60 cells; format: cell-based, Human; conditions: HL-60 cells (p53 null), P22077 at 10, visible from 8 h to 24 h of treatment
Method: (§3) FIG. 2: USP7 inhibition decreases CHK1 protein level. […] Actin was used as loading control. Normalization was performed using CTL siRNA condition as reference. […] B: HL-60 cells were treated with USP7 inhibitor (P22077) at 10 and harvested at the indicated times, followed by western blotting for CHK1. […] The amount of CHK1 at t=0 h was set to 1. […] C: OCI-AML3 cells were treated with USP7 inhibitor (P22077) at 10 μM and harvested at the indicated times, followed by western blotting for CHK1 protein. Graph represent the quantification of CHK1 protein levels normalized to actin loading control from 3 independent experiments. Statistical analyses were performed as in B.
(§4) We then investigated whether USP7 could regulate CHK1 levels in leukemic cells. […] We then used P22077, an inhibitor of USP7 catalytic activity^34,35, to further monitor the impact of USP7 inhibition on CHK1 levels. […] We then asked whether p53 status could affect this response and reproduced these experiments on two AML cell lines, OCI-AML3 and HEL, which express wild-type p53 and high CHK1 protein levels (FIG. 1A and data not shown). […] Using an immunofluorescence approach, we also validated that approximately 50% of CHK1 protein signal disappears after 24 hours of USP7 inhibition (data not shown).

[4] = test system: CHK1 protein level in OCI-AML3 cell line; assay: CHK1 protein level by western blot in OCI-AML3 cells; format: cell-based, Human; conditions: OCI-AML3 cells (wild-type p53), P22077 10 μM
Method: as §3
We then investigated whether USP7 could regulate CHK1 levels in leukemic cells. […] . We then asked whether p53 status could affect this response and reproduced these experiments on two AML cell lines, OCI-AML3 and HEL, which express wild-type p53 and high CHK1 protein levels (FIG. 1A and data not shown). […] . Using an immunofluorescence approach, we also validated that approximately 50% of CHK1 protein signal disappears after 24 hours of USP7 inhibition (data not shown).

[5] = test system: CHK1 protein levels in HEL cells; assay: CHK1 and p53 protein levels in HEL cells; format: cell-based, Human; conditions: data not shown
Text: as §4

[6] = test system: CHK1 protein signal; assay: Immunofluorescence of CHK1 protein signal; format: cell-based; conditions: after 24 hours of USP7 inhibition, data not shown
Text: as §4
We then investigated whether USP7 can regulate CHK1 protein level or its subcellular localization in leukemic cells. […] Using immunofluorescence, we also validated that approximately 50% of the CHK1 protein signal disappears after 24 hours of USP7 inhibition, without any changes in CHK1 subcellular localization (data not shown).

[7] = test system: CHK1 ubiquitination in HL60 cells; assay: CHK1 immunoprecipitation and ubiquitin immunoblot in HL60 cells with MG132; format: cell-based, Human; conditions: in presence of proteasome inhibitor MG132, vs control condition
Method: To confirm that USP7 can regulates CHK1 protein level, endogenous CHK1 was immunoprecipitated from HL60 cells treated or not with P22077, in presence of the proteasome inhibitor MG132 to stabilize ubiquitinated forms of the protein. Immunoblotting of these fractions was performed and probed with an antibody against ubiquitin.

[8] = test system: CHK1 half-life in HL60 cells; assay: CHK1 half-life with cycloheximide in HL60 cells; format: cell-based, Human
Method: To complete, experiments were performed to test whether the half-life of CHK1 is regulated by USP7 in leukemic cells. To this end, HL60 cells were treated with P22077 and the half-life of CHK1 was measured in the presence of 50 μg/mL cycloheximide (CHX) to inhibit protein biogenesis.

[9] = test system: HL-60 cells; assay: Cell death of HL-60 cells, combination with cytarabine, annexinV flow cytometry; format: cell-based, Human; conditions: HL60 cells, 24 h
Method: as §1, §2

[10] = test system: OCI-AML3 cells; assay: Cell death of OCI-AML3 cells, combination with cytarabine, annexinV flow cytometry; format: cell-based, Human; conditions: P22077 10 μM + AraC 1 μM, 24 h
Method: as §1, §2

[11] = test system: OCI-AML3 cells engrafted in NSG mice; assay: OCI-AML3 xenograft in NSG mice, overall survival; conditions: NSG mice engrafted with OCI-AML3, 30 mg/kg/day IP for 5 days, vs vehicle, p=0.0001
Method: For statistical analysis, Mantel-Cox test was used. ***P≤0.001.
NOD/LtSz-SCID/IL-2Ry chain null (NSG) mice were bred at the UMS006 in Toulouse (France) using breeders obtained from Charles River. […] NSG mice were treated by i.p. injection of busulfan (20 mg/kg) on the day before the experiment. Mice were engrafted by injection of 2.10^6 OCI-AML3 cells into the tail vein. […] Mice were treated by daily intraperitoneal (IP) injection with AraC, P22077 or vehicle for 5 days. Overall mouse survival was established under these conditions.
OCI-AML3 resistant cells were injected into the tail vein of immunodeficient NSG mice to establish AML disease.

[12] = test system: Peripheral Blood Mononuclear Cells (PBMC); assay: Cell viability of PBMC, annexinV/cell viability staining by flow cytometry; conditions: normal PBMC (n=3), 10 μM P22077 for 24 h
[13] = test system: AML primary samples; assay: Cell viability of AML primary samples, annexinV/cell viability staining by flow cytometry; conditions: three primary AML samples, 10 μM P22077 for 24 h

T1 sequence (Q93009 whole entry): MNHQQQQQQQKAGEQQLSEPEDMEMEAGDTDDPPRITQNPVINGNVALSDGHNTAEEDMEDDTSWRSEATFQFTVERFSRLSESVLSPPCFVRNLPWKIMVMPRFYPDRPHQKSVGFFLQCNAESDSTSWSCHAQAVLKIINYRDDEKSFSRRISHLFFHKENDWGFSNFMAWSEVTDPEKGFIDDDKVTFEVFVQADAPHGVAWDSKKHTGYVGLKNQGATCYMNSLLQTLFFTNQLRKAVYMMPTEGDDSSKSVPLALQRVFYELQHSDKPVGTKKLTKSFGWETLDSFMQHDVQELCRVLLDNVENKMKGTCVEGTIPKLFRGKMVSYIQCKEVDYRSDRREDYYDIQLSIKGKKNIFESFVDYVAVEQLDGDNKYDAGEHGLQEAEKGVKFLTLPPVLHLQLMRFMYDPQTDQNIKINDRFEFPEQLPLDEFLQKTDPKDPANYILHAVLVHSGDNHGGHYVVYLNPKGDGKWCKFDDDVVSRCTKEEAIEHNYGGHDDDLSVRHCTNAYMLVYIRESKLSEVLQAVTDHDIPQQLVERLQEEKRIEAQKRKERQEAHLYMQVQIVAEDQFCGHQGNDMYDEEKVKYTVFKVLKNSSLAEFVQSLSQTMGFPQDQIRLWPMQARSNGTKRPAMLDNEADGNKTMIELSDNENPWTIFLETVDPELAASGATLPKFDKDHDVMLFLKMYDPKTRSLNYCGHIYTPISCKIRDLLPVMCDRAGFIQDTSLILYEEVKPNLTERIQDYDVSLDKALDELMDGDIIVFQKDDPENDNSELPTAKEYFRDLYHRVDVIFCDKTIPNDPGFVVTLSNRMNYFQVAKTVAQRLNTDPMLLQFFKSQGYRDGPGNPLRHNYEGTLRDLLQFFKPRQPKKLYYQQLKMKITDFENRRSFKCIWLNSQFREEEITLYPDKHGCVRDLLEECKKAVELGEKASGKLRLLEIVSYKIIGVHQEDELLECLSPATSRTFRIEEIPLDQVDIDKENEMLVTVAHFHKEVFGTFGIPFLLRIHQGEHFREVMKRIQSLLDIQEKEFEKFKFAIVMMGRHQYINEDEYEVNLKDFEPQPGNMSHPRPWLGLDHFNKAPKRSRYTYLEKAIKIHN

SMILES	PLA foci per cell, co-staining of CHK1 and USP7 (mean +/- s.e.m.) [1]	PLA foci per cell, co-staining of CHK1 and USP7 (mean +/- s.e.m.) ([1]; listed as AraC)	colony formation, resistance of high CHK1 cells compared to low CHK1 cells ([2]; 10 nM cytarabine alone, 7 days)	CHK1 protein levels [3]	CHK1 protein level [4]	CHK1 protein levels ([5]; HEL cells (wild-type p53))	p53 protein levels ([5]; HEL cells)	CHK1 protein signal that disappears (immunofluorescence) [6]	CHK1 ubiquitination [7]	half-life of CHK1 protein ([8]; 50 μg/mL cycloheximide, after 6 hours of P22077 treatment)	CHEK1 mRNA expression ([8]; P22077 treatment, data not shown)	cell death in combination with cytarabine [9]	cell death in combination with cytarabine [10]	colony formation, effect on cytarabine sensitivity ([2]; high CHK1 primary AML cells (n=6))	colony formation, effect on cytarabine sensitivity ([2]; low CHK1 primary AML cells (n=3))	overall mouse survival [11]	cell viability [12]	cell viability [13]
Nc1ccn([C@@H]2O[C@H](CO)[C@@H](O)[C@@H]2O)c(=O)n1 [cytarabine]	significant proximity between the two proteins	3.31+/−0.21 foci/cell	significantly more resistant to cytarabine															
CC(=O)c1cc([N+](=O)[O-])c(Sc2ccc(F)cc2F)s1 [P22077, 1-[5-[(2,4-Difluorophenyl)thio]-4-nitro-2-thienyl]-ethanone]				significant decrease of CHK1 protein levels	reduced CHK1 protein level	similarly decreased CHK1 protein levels	without significant impact on p53 protein levels	approximately 50%	more abundantly ubiquitinated	significantly shortened the half-life of CHK1 protein	without affecting CHEK1 mRNA expression	synergistically enhances cell death induced by cytarabine	synergistically enhances cell death induced by cytarabine	potentiated the effects of cytarabine	did not modify the sensitivity to cytarabine	significantly improved overall mouse survival	largely unaffected	significantly reduced cell viability
